Assay results: publication PMC9503459, “Antifungal Activity, Structural Stability, and Immunomodulatory Effects on Human Immune Cells of Defensin from the Lentil Lens culinaris” (Membranes, 2022)
Where “and” joins values, the source holds several entries; their conditions need not be identical. Equal entries are not always repeated. No end group written: not given here.

Test system: primary CD14+ blood monocytes
Experiment: Cytokine response by multiplex xMAP, monocytes
Type: cell-based, human
Settings: 2 µM, 24 h
Experimental: Colorectal adenocarcinoma Caco-2 cell line (ATCC HTB-37) was cultured in complete DMEM/F12 (1:1) medium containing 10% fetal bovine serum (FBS, Gibco) and 1X antibiotic-antimycotic solution (1XAAS, Invitrogen, Waltham, MA, USA). The acute monocytic leukemia THP-1 line (ATCC TIB-202) was cultured in complete RPMI-1640 medium, containing 10% FBS, 1XAAS, and […]. THP-1 cells were differentiated into pro-inflammatory macrophages (Mφ1) with phorbol 12-myristate 13-acetate (Sigma-Aldrich) for 24 h and subsequently polarized with lipopolysaccharide from E. coli (Sigma-Aldrich) and rhIFN-γ (Sigma-Aldrich) for another 48 h according to previously reported protocol. All cells were cultured in a humidified CO2 incubator (5% CO2, 37 °C). Primary peripheral blood mononuclear cells (PBMCs) collected from a healthy donor were purchased from American Type Culture Collection (ATCC PCS-800-011). CD4^+ T-helper and CD8^+ T cytotoxic cells were isolated from PBMCs by magnetic separation with mouse anti-human CD4-PE (clone 13B8.2, Beckman Coulter Diagnostics, Pasadena, CA, USA) and CD8-PE (clone REA734, Miltenyi Biotec, Bergisch Gladbach, Germany), Anti-PE MicroBeads (Miltenyi Biotec), and LS Separation Columns (Miltenyi Biotec). Isolated CD4^+ and CD8^+ cells were expanded separately with Dynabeads™ Human T-Expander CD3/CD28 (Gibco, Waltham, MA, USA) in RPMI-1640 supplemented with 10% FBS, 1XAAS and 100 U/mL rh-IL-2 (Gibco). Regulatory CD4^+ FoxP3^+ T cells (Tregs) were isolated from PBMCs by magnetic separation with CD4^+CD25^+ Regulatory T Cell Isolation Kit, human (Miltenyi Biotec). Primary CD14^+ blood monocytes were isolated from PBMCs by adherence according to standard technique. Monocyte-derived mature dendritic cells (moDCs) were obtained from CD14^+ blood monocytes according to the previously reported protocol. Briefly, blood monocytes were incubated in complete RPMI-1640 medium, containing 10% FBS, 1XAAS, 800 U/mL rhGM-CSF (Sci-Store, Russia, Moscow) and 500 U/mL rhIL-4 (Sci-Store) for 3 days. Fresh complete RPMI-1640 medium with rhGM-CSF and rhIL-4 was added to the culture on day 3. On day 5, fresh complete RPMI-1640 containing 100 U/mL rhTNF-α (Sigma) as well as 800 U/mL rhGM-CSF and 500 U/mL rhIL-4 was added and the culture was incubated for another 4 days until full maturation.
Caco-2 cells were seeded into the wells of a 48-well plate, coated with 0.1% bovine collagen (Sigma-Aldrich) for 24 h, 3 weeks before the experiment with complete DMEM/F12 (1:1) medium renewal every 2–3 days. Monocytes, moDCs, CD4^+ T-helper and CD8^+ T cytotoxic cells, Mφ1, and Regulatory CD4^+ FoxP3^+ T cells were seeded into the wells of 48-well plates in the complete RPMI-1640 medium supplemented with 10% Human AB serum (HABS, Capricorn Scientific, Ebsdorfergrund, Germany) and 1XAAS 24 h prior to the experiment; medium in Caco-2-containing wells was also replaced with the same medium. After 24 h, half of the medium in each well was replaced by fresh complete RPMI-1640 medium with 10% HABS, supplemented with 4 µM of Lc-def for the sample wells or fresh medium alone for the control wells. Cell cultures were kept in CO2-incubator (5% CO2, 37 °C) for another 24 h. Culture supernatants were collected 24 h later and stored at −70 °C degrees less than one month prior to the analytes assessment. […]

For “Lc-def: defensin from lentil Lens culinaris seeds (UniProt:B3F051), recombinant, overexpressed in Escherichia coli (KTCENLSDSFKGPCIPDGNCNKHCKEKEHLLSGRCRDDFRCWCTRNC; disulfide (positions not given here); ends not checked; also: disulfide bonds present, pairing not given here; UniProt B3F051 28-74, looked up)”, the EGF was 11.56 pg/mL, the Eotaxin was <3.23↓ pg/ml and the FGF-2 was 44.46 pg/mL. For the same substance, the FLT-3L was 1.04 pg/mL, the Fractalkine was <23.19↓ pg/ml and the G-CSF was 22.68 pg/mL. For the same substance, the GM-CSF was 3.49 pg/mL, the GROa was 777.01 pg/mL and the IFNa2 was 21.43 pg/mL. For the same substance, the IFNg was <1.99↓ pg/ml, the IL-1RA was 10.83 pg/mL and the IL-1a was 17.69 pg/mL. The IL-1b was <18.72↓ pg/ml, the IL-2 was 2.62 pg/mL and the IL-3 was <0.48↓ pg/ml. The IL-4 was 0.58 pg/mL, the IL-5 was <0.24↓ pg/ml and the IL-6 was 378 pg/mL and 378.12 pg/mL. The IL-7 was <0.33↓ pg/ml, the IL-8 was 5662 pg/mL and the IL-9 was 1.6 pg/mL. For the same substance, the IL-10 was 8.4 pg/mL, the “IL-12 (p40)” value was 19.56 pg/mL and the “IL-12 (p70)” value was 2.22 pg/mL. It also gave an IL-13 of 15.11 pg/mL, an IL-15 of 3.53 pg/mL and an IL-17A of 2.6 pg/mL. The IL-17E/IL-25 was <20.59↓ pg/ml, the IL-17F was <16.96↓ pg/ml and the IL-18 was 2.04 pg/mL. It also gave an IL-22 of 17.03 pg/mL, an IL-27 of 60.93 pg/mL and an IP-10 of 529.41 pg/mL. For the same substance, the M-GSF was 38.29 pg/mL, the MCP-1 was 5545 pg/mL and the MCP-3 was 326 pg/mL and 326.33 pg/mL. It also gave an MDC of 995.8 pg/mL, an MIG of 1406 pg/mL and an MIP-1a of 14.98 pg/mL. It also gave an MIP-1b of 42.32 pg/mL, a PDGF-AB/BB of 943.35 pg/mL and an RANTES of 5.41 pg/mL. For the same substance, the TGF-a was 1.79 pg/mL, the TNFa was 27.51 pg/mL and the TNFb was 1.77 pg/mL. It also gave a VEGFa of 21.72 pg/mL and a sCD40L of 65.54 pg/mL.
